From ChEMBL document CHEMBL1147799, “An integrated in silico 3D model-driven discovery of a novel, potent, and selective amidosulfonamide 5-HT1A agonist (PRX-00023) for the treatment of anxiety and depression” (J Med Chem, 2006)
Calls of active or inactive are those of the source. The calls are words filed in the database; no cut-off is given here.

What was measured:
Somatostatin receptor = test: Binding affinity to somatostatin receptor by radioligand binding assay; format: protein assay
[1] = Protein binding in human serum at 10 uM; format: ADME, organism-based; conditions: read-out: PPB (converted)
Dopamine receptor = test: Binding affinity to dopamine receptor by radioligand binding assay; format: protein assay
[2] = Half life in Beagle dog at 3 mg/kg, po; format: ADME, organism-based, Canis lupus familiaris; design: dose 3 mg/kg, route oral; conditions: in vivo
[3] = biological target: T1, Voltage-gated inwardly rectifying potassium channel KCNH2 (Homo sapiens, UniProt Q12809); test: Binding affinity to potassium channel by radioligand binding assay
T1 sequence (Q12809 whole entry): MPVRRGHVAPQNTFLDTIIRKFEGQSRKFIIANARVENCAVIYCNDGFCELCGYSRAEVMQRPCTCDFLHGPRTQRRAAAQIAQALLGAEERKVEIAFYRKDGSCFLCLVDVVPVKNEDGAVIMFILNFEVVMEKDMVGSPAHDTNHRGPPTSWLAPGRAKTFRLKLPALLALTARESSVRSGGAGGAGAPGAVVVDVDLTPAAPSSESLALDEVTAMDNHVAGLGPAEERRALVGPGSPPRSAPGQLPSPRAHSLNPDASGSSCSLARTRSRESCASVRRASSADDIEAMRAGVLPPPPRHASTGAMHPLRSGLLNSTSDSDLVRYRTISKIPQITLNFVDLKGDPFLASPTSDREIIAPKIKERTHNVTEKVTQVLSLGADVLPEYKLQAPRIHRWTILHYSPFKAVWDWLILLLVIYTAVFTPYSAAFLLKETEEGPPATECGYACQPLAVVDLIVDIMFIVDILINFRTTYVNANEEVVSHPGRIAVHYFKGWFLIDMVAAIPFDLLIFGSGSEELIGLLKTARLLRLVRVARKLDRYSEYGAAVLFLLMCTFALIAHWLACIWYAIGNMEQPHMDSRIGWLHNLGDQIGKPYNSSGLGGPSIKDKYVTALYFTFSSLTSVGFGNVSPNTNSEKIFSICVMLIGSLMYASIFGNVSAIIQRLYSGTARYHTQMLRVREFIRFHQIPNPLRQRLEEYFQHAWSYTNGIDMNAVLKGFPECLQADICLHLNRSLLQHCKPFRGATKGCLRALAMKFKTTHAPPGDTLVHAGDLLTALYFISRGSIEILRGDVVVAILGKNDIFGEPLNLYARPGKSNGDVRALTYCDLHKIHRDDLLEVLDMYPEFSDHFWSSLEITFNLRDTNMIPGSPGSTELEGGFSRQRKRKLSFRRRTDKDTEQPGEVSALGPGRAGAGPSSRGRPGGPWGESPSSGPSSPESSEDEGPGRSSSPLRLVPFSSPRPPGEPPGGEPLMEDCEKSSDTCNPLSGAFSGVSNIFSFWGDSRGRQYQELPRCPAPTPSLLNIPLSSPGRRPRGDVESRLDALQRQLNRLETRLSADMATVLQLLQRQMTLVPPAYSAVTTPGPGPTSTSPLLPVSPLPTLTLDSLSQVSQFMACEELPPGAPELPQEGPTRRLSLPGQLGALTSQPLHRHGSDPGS

Mus musculus [4] = test: Decrease in basal rectal temperature in stress-induced hyperthermic 129S6/SvEvTac mouse at 20 mg/kg, po; format: functional, organism-based; design: dose 20 mg/kg
[5] = biological target: 5-hydroxytryptamine receptor 4 (Homo sapiens, UniProt Q13639); test: Binding affinity to human 5HT4e receptor by radioligand binding assay
5-hydroxytryptamine receptor 4, sequence (Q13639 whole entry): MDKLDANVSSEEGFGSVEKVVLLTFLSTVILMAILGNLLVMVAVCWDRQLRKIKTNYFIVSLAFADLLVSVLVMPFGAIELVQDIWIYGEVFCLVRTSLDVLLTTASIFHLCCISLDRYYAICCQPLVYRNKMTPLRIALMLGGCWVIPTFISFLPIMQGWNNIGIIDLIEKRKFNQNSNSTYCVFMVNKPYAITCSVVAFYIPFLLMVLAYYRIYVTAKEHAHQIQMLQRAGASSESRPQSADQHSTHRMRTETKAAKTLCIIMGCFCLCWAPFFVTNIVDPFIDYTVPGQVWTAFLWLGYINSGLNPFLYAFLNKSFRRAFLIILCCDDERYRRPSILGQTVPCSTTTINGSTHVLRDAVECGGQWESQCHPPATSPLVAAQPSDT

[6] = Oral bioavailability in Sprague-Dawley rat at 3 mg/kg, po and 1 mg/kg, iv; format: ADME, organism-based; conditions: in vivo
[7] = biological target: Adrenergic receptor alpha-1 (Rattus norvegicus) (UniProt P15823+P23944+P43140); test: Displacement of [3H]prazosin from Adrenergic alpha-1 receptor in rat cerebral cortex cells at 1 uM; format: cell-based
[8] = Half life in human liver microsome at 5 uM; format: ADME; conditions: liver microsomes
[9] = Oral bioavailability in Beagle dog at 3 mg/kg, po and 1 mg/kg, iv; format: ADME, organism-based, Canis lupus familiaris; conditions: in vivo
[10] = biological target: 5-hydroxytryptamine receptor 2A (Homo sapiens, UniProt P28223)
5-hydroxytryptamine receptor 2A, sequence (P28223 whole entry): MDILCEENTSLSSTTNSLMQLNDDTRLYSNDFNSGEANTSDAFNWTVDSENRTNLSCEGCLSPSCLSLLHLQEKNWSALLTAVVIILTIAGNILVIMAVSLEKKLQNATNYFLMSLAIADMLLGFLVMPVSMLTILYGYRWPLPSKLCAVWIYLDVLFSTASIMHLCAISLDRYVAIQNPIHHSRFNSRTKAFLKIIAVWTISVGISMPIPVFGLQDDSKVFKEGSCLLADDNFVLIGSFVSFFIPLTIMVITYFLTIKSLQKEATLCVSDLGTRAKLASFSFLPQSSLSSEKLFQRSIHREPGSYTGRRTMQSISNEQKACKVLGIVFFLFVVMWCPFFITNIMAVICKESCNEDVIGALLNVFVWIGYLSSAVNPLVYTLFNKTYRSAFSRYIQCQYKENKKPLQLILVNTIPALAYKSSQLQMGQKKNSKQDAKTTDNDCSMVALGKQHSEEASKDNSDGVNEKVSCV
Description: Binding affinity to 5HT2A receptor by radioligand binding assay

[11] = Terminal half life in human; format: ADME, organism-based; conditions: in vivo
[12] = biological target: T1, Voltage-gated inwardly rectifying potassium channel KCNH2; test: Inhibition of hERG potassium channel in HEK293 cells by patch clamp assay
Cytochrome P450 2D6 = Cytochrome P450 2D6 (Homo sapiens, UniProt P10635); test: Inhibition of human recombinant cytochrome P450 2D6; format: ADME; conditions: recombinant enzyme
Cytochrome P450 2D6, sequence (P10635 whole entry): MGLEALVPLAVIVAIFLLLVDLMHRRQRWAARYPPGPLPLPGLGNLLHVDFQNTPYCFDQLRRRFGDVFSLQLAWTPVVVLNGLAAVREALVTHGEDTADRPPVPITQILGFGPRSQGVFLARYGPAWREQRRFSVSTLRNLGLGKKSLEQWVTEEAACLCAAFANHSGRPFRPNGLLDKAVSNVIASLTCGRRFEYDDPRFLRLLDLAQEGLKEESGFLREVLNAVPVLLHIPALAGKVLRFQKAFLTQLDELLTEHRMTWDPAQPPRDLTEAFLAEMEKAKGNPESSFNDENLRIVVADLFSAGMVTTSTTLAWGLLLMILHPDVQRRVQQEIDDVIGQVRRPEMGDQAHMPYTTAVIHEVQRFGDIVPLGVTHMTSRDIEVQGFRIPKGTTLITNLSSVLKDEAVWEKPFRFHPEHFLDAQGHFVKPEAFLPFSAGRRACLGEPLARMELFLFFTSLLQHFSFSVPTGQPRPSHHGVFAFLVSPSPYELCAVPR

Cholecystokinin receptor = Cholecystokinin receptor (Homo sapiens, UniProt P32239+P32238); test: Binding affinity to cholecystokinin receptor by radioligand binding assay; format: protein assay
[13] = Binding affinity to histamine receptor by radioligand binding assay
[14] = biological target: 5-hydroxytryptamine receptor 6 (Homo sapiens, UniProt P50406); test: Binding affinity to human 5HT6 receptor by radioligand binding assay
5-hydroxytryptamine receptor 6, sequence (P50406 whole entry): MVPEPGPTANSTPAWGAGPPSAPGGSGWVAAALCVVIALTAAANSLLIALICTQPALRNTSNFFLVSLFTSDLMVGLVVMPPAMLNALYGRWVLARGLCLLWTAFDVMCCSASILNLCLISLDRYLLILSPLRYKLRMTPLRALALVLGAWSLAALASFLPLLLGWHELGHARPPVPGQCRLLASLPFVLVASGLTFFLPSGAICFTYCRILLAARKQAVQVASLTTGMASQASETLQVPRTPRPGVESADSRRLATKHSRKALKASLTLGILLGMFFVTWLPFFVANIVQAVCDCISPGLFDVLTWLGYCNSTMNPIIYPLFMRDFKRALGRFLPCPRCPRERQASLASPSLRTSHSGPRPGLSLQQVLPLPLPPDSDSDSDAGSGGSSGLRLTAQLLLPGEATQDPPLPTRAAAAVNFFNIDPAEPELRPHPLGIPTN

[15] = biological target: T2, 5-hydroxytryptamine receptor 1A (Homo sapiens, UniProt P08908); test: Displacement of [3H]8-OH-DPAT from human 5HT1A receptor in HEK293 cells
T2 sequence (P08908 whole entry): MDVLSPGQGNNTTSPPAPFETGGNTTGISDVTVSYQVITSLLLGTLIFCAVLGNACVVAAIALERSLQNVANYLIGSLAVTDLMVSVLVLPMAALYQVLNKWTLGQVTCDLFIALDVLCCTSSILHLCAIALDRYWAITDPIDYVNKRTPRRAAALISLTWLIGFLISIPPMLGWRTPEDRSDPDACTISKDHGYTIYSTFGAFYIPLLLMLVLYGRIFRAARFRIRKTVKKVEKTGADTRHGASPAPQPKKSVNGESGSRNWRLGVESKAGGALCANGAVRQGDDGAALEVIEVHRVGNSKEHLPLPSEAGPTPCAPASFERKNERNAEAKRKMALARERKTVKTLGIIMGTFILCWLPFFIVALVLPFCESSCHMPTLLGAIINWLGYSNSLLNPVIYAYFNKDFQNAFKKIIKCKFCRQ

[16] = Binding affinity to adrenergic alpha receptor by radioligand binding assay
[17] = Toxicity in po dosed Sprague-Dawley rat; format: organism-based; conditions: in vivo
Cytochrome P450 3A4 = Cytochrome P450 3A4 (Homo sapiens, UniProt P08684); test: Inhibition of human recombinant cytochrome P450 3A4; format: ADME; conditions: recombinant enzyme
Cytochrome P450 3A4, sequence (P08684 whole entry): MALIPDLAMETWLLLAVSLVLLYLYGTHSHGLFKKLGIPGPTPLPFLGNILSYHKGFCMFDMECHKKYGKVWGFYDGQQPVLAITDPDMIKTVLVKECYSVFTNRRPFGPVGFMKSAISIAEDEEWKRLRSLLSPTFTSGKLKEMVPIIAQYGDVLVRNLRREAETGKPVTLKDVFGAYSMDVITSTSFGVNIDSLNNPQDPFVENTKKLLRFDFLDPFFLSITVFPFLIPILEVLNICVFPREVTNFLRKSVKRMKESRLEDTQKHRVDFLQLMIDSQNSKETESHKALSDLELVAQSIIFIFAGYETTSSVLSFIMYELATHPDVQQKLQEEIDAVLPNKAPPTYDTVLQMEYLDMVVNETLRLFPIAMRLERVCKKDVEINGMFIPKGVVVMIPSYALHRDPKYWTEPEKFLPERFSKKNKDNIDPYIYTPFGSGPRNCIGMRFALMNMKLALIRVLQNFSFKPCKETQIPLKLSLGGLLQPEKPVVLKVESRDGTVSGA

Adrenergic receptor beta = Adrenergic receptor beta (Homo sapiens, UniProt P08588+P07550+P13945); test: Binding affinity to beta adrenergic receptor by radioligand binding assay; format: protein assay
[18] = Binding affinity to sodium channel by radioligand binding assay
Mus musculus [19] = test: Decrease in stress-induced hyperthermia in 129S6/SvEvTac mouse at 20 mg/kg, po; format: functional, organism-based; design: dose 20 mg/kg
[20] = biological target: GABA-A receptor; anion channel; test: Binding affinity to GABA receptor by radioligand binding assay; format: protein-complex assay

`CC(=O)Nc1cccc(N2CCN(CCCCNS(=O)(=O)CC3CCCCC3)CC2)c1` [NALUZOTAN] gave a Ki (Somatostatin receptor) greater than 2 µM, a fraction unbound at 10 µM [1] of 0.08 and a Ki (Dopamine receptor) greater than 2 µM. The half-life [2] was 1.1 h, the Ki [3] was greater than 2 µM and the Activity (Mus musculus [4]) was “Active”. For the same compound, the Ki [5] was greater than 5 µM, the bioavailability [6] was 11% and the Activity [7] was 47%. It also gave a half-life at 5 µM [8] of 0.467 h, a bioavailability [9] of 16% and a Ki [10] greater than 2 µM. For the same compound, the half-life [11] was greater than 10 h, the IC50 [12] was 3.8 µM and the Inhibition (Cytochrome P450 2D6) was “Not Active”. It also gave a Ki (Cholecystokinin receptor) greater than 2 µM, a Ki [13] greater than 2 µM and a Ki [14] greater than 5 µM. It also gave a Ki [15] of 0.0051 µM, a Ki [16] greater than 2 µM and an MTD [17] of 300 mg/kg. The Inhibition (Cytochrome P450 3A4) was “Not Active”, the Ki (Adrenergic receptor beta) was greater than 2 µM and the Ki [18] was greater than 2 µM. For the same compound, the Activity (Mus musculus [19]) was “Active” and the Ki [20] was greater than 2 µM.
